Reference: ChEMBL document CHEMBL3886818, “Pyrazole carboxamides as Janus kinase inhibitors” (2016)

Experiments:
[1] = target: Tyrosine-protein kinase JAK1 (Homo sapiens, UniProt P23458); test: Subsequent reagent additions employed an Agilent Bravo.
[2] = target: Tyrosine-protein kinase JAK2 (Homo sapiens, UniProt O60674)
Chain of Tyrosine-protein kinase JAK2 (O60674 whole entry): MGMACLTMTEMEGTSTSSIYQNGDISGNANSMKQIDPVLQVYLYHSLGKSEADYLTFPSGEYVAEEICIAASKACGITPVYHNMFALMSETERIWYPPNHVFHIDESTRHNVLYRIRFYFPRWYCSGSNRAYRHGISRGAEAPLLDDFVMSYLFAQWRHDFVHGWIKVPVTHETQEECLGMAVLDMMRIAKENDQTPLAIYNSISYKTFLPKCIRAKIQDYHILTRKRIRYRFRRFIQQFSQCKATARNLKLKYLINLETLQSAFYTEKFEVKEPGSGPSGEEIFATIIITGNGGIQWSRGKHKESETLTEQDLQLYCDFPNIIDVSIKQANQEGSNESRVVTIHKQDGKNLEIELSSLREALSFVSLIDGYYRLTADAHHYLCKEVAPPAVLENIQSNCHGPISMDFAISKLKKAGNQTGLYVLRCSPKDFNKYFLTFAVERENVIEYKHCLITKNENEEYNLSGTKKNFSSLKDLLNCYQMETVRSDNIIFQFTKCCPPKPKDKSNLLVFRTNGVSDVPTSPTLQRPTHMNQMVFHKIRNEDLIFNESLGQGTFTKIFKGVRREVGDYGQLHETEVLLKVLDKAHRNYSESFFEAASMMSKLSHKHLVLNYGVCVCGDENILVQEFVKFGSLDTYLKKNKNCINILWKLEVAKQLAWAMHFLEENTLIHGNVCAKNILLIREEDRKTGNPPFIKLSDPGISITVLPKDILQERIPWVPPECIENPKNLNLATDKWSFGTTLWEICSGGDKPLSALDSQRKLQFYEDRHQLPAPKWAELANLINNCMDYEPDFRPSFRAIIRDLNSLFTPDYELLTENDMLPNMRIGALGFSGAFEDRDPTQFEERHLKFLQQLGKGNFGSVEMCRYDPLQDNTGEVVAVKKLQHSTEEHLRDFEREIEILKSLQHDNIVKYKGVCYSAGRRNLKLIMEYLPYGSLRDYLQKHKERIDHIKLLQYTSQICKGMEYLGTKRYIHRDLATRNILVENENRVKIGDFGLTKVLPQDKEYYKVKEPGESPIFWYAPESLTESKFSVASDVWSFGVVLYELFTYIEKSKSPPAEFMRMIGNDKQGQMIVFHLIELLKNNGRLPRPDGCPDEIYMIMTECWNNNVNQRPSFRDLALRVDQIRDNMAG

Chain of Tyrosine-protein kinase JAK1 (P23458 whole entry): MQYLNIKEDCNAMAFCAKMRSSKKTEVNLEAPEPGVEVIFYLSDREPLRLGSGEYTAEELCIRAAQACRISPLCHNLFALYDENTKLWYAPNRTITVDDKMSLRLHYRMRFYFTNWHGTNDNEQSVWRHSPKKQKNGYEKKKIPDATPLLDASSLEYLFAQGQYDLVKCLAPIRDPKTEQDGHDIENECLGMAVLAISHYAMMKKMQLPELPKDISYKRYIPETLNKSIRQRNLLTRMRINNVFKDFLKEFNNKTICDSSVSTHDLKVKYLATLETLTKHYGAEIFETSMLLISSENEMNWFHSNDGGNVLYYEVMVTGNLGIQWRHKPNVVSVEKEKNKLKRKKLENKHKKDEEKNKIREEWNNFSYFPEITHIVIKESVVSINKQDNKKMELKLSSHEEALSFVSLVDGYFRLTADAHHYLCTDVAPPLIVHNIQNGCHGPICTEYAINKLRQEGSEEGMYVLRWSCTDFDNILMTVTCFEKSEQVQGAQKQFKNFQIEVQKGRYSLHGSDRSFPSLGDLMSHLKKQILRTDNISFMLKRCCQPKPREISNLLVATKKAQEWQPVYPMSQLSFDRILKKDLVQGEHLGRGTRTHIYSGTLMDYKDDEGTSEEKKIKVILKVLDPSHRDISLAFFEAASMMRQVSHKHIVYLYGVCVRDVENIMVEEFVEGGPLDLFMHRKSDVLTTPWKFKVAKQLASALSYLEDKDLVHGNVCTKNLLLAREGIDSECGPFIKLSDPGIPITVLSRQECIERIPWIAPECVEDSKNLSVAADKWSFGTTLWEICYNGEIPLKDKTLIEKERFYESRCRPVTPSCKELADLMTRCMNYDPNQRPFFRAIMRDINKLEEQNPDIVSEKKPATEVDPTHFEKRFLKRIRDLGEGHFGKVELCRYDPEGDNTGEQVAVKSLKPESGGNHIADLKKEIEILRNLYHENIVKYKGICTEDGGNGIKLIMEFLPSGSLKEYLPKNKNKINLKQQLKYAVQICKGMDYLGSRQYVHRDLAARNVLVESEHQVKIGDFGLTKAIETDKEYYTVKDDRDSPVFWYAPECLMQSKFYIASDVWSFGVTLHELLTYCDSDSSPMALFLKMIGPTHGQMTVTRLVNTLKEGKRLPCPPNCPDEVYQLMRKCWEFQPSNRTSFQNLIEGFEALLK

N#C[C@H]1CCOC[C@@H]1n1cc(C(N)=O)c(Nc2ccc(OC(F)(F)F)cc2)n1 (single isomer, unassigned)
IC50 [1]: 200 pM
IC50 [2]: 1000 pM
